Experimental data from the supplement of paper PMC10307832.

Legend:
Test in all cases: relative viability (nuclei count vs DMSO), 5 days (fraction); higher = more cells survive
Bemcentinib + Linsitinib = compound: Nc1nc(Nc2ccc3c(c2)CC[C@@H](N2CCCC2)CC3)nn1-c1cc2c(nn1)-c1ccccc1CCC2 [Bemcentinib] + C[C@]1(O)C[C@@H](c2nc(-c3ccc4ccc(-c5ccccc5)nc4c3)c3c(N)nccn32)C1 [Linsitinib] (partner 1 µM)
How it was run: (§1)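 Each reported value is a median over duplicate plates. It expresses relative viability: treated-well nuclei count divided by vehicle-well nuclei count. Lung cancer cell lines in 1536-well plates were dosed by pin tool a day after seeding, alone with one drug or with a fixed anchor-drug dose plus five library-drug doses (not always all listed) in √10 steps, and nuclei were counted after 5 days.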

[1] = compound: CC1=CC=C(C=C1)C(=O)CN2C3=C(CCCC3)SC2=N [Pifithrin_alpha] + CC1(C)CCC(c2ccc(Cl)cc2)=C(CN2CCN(c3ccc(C(=O)NS(=O)(=O)c4ccc(N[C@H](CCN5CCOCC5)CSc5ccccc5)c(S(=O)(=O)C(F)(F)F)c4)cc3)CC2)C1 [Navitoclax] (partner 0.5 µM)
How it was run: as §1

Axitinib + OSI-027 = compound: CNC(=O)c1ccccc1Sc1ccc2c(/C=C/c3ccccn3)n[nH]c2c1 [Axitinib] + COc1cccc2cc(-c3nc([C@H]4CC[C@H](C(=O)O)CC4)n4ncnc(N)c34)[nH]c12 [OSI-027] (partner 0.5 µM)
How it was run: as §1

Bemcentinib + Trametinib = compound: Nc1nc(Nc2ccc3c(c2)CC[C@@H](N2CCCC2)CC3)nn1-c1cc2c(nn1)-c1ccccc1CCC2 [Bemcentinib] + CC(=O)Nc1cccc(-n2c(=O)n(C3CC3)c(=O)c3c(Nc4ccc(I)cc4F)n(C)c(=O)c(C)c32)c1 [Trametinib] (partner 0.02 µM)
How it was run: as §1

| Cell Line | relative viability (Bemcentinib + Linsitinib; first compound 0.04 µM) | relative viability (Bemcentinib + Linsitinib; first compound 0.1265 µM) | relative viability (Bemcentinib + Linsitinib; first compound 0.4 µM) | relative viability (Bemcentinib + Linsitinib; first compound 1.265 µM) | relative viability (Bemcentinib + Linsitinib; first compound 4 µM) | relative viability ([1]; first compound 1 µM) | relative viability ([1]; first compound 3.162 µM) | relative viability ([1]; first compound 10 µM) | relative viability ([1]; first compound 31.62 µM) | relative viability ([1]; first compound 100 µM) | relative viability (Axitinib + OSI-027; first compound 0.005 µM) | relative viability (Axitinib + OSI-027; first compound 0.01581 µM) | relative viability (Axitinib + OSI-027; first compound 0.05 µM) | relative viability (Axitinib + OSI-027; first compound 0.1581 µM) | relative viability (Axitinib + OSI-027; first compound 0.5 µM) | relative viability (Bemcentinib + Trametinib; first compound 0.04 µM) | relative viability (Bemcentinib + Trametinib; first compound 0.1265 µM) | relative viability (Bemcentinib + Trametinib; first compound 0.4 µM) | relative viability (Bemcentinib + Trametinib; first compound 1.265 µM) | relative viability (Bemcentinib + Trametinib; first compound 4 µM) |
| --- | --- | --- | --- | --- | --- | --- | --- | --- | --- | --- | --- | --- | --- | --- | --- | --- | --- | --- | --- | --- |
| NCI-H322M | 0.994 | 0.978 | 0.9 | 1.01 | 1.04 | 1.17 | 1.35 | 1.27 | 1.22 | 1.33 | 0.569 | 0.575 | 0.546 | 0.536 | 0.601 | 0.477 | 0.534 | 0.496 | 0.504 | 0.51 |
| NCI-H1651 | 0.958 | 0.965 | 1.15 | 1.15 | 1.08 | 1.05 | 1.06 | 0.924 | 0.604 | 0.865 | 0.73 | 0.683 | 0.725 | 0.601 | 0.674 | 0.85 | 0.831 | 0.788 | 0.951 | 0.852 |
| NCI-H1437 | 1.03 | 1.14 | 1.16 | 1.12 | 1.18 | 1.25 | 1.16 | 1.13 | 0.784 | 0.775 | 0.905 | 0.832 | 0.872 | 0.846 | 0.847 | 0.539 | 0.683 | 0.486 | 0.455 | 0.644 |
| NCI-H1355 | 0.858 | 0.98 | 0.848 | 0.903 | 0.99 | 0.812 | 0.675 | 0.692 | 0.556 | 0.563 | 0.42 | 0.384 | 0.492 | 0.432 | 0.492 | 0.407 | 0.414 | 0.462 | 0.405 | 0.509 |
| NCI-H1755 | 1.03 | 1.02 | 1.04 | 1.04 | 1.11 | 0.935 | 0.973 | 0.888 | 0.628 | 0.966 | 0.772 | 0.783 | 0.724 | 0.674 | 0.894 | 0.765 | 0.817 | 0.818 | 0.768 | 0.813 |
| SK-LU-1 | 1.15 | 1.42 | 1.28 | 1.02 | 1.13 | 1.07 | 1.07 | 1.07 | 0.626 | 0.823 | 0.396 | 0.374 | 0.37 | 0.409 | 0.415 | 0.463 | 0.514 | 0.493 | 0.547 | 0.531 |
| NCI-H2126 | 0.706 | 0.693 | 0.659 | 0.76 | 0.781 | 0.787 | 0.8 | 0.73 | 0.738 | 0.771 | 0.685 | 0.766 | 0.733 | 0.643 | 0.667 | 0.639 | 0.583 | 0.588 | 0.581 | 0.585 |
| NCI-H1793 | 0.662 | 1.09 | 0.81 | 1.07 | 0.992 | 0.395 | 0.282 | 0.382 | 0.339 | 0.339 | 0.348 | 0.198 | 0.349 | 0.289 | 0.312 | 0.442 | 0.436 | 0.421 | 0.442 | 0.365 |
| HOP-62 | 1.12 | 0.986 |  | 1.08 | 0.99 | 0.908 | 1.09 | 1.06 | 0.751 | 1.07 | 0.825 | 0.865 | 0.814 | 0.872 | 0.923 | 0.341 | 0.337 | 0.402 | 0.395 | 0.458 |
| NCI-H1395 | 1.06 | 1.21 | 1.01 | 1.48 | 0.962 |  | 1.15 | 1.34 | 0.604 | 1.31 | 0.595 | 0.595 | 0.736 | 0.581 | 0.633 |  | 1.12 | 1.02 | 1.2 | 1.11 |
| NCI-H2347 | 0.959 | 1.04 | 0.943 | 0.951 | 0.871 | 0.695 | 0.87 | 0.786 | 0.551 | 0.814 | 0.482 | 0.407 | 0.422 | 0.423 | 0.51 | 0.254 | 0.312 | 0.232 | 0.307 | 0.302 |
| HCC-15 | 0.828 | 0.983 | 0.923 | 0.904 | 0.93 | 0.681 | 0.697 | 0.524 | 0.441 | 0.525 | 0.725 | 0.679 | 0.689 | 0.65 | 0.623 | 0.389 | 0.365 | 0.44 | 0.368 | 0.42 |
| HCC-44 | 0.702 | 0.74 | 0.736 | 0.714 | 0.771 | 0.8 | 0.899 | 0.795 | 0.701 | 0.801 | 0.451 | 0.439 | 0.404 | 0.605 | 0.614 | 1.11 | 1.13 | 1.06 | 1.18 | 1.18 |
| PC-14 | 0.982 | 1.02 | 1.06 | 1.07 | 1.08 | 1.01 | 0.988 | 0.988 | 0.881 | 0.847 | 0.916 | 0.717 | 0.975 | 0.82 | 1.41 | 0.857 | 0.783 | 0.947 | 0.879 | 0.892 |
| NCI-H2085 | 0.842 | 0.977 | 0.837 | 0.9 | 0.855 | 1.06 | 1.22 | 1.08 | 0.876 | 1.04 | 0.827 | 0.691 | 0.857 | 0.77 | 0.66 | 0.538 | 0.667 | 0.526 | 0.444 | 0.516 |
